Reference: patent publication US20150189844A1, “METHOD FOR […] RECOMBINATION” (Biogemma, priority 2012, published 2015)
Where two headings read alike, the source gives them in different places.

Experiments:
I-SceI:GR [1] = test system: I-SceI:GR
Method: (§1) Embryos isolated from selfed plants containing the TL and DL were placed onto a regeneration medium according to Ishida et al. (Ishida et al., 1996) lacking the kanamycin selective agent. For first experiment, LS-AS medium was complemented by 0, 30 or 50 μM dexamethasone and after one week transferred sequentially to LSD1.5, LSZ and ½LSF medium lacking dexamethasone and containing 50 mg·L−1 of kanamycin. For the second experiment, callus was developed for 3 days on LS-AS, 1 week on LSD1.5 and 3 weeks on LSZ medium. Then, callus was cultivated 1 week on LSZ medium complemented by 0 μM, 30 μM or 50 μM of dexamethasone and selected for 2 weeks on LSZ and then ½ LSF medium complemented by 50 mg·L−1 of kanamycin. GFP fluorescence of callus was visualized under the fluorescence stereomicroscope (Leica MZ16F) with a GFP2 filter.
Plant regeneration from maize leaves has not been reported but calli derived from immature maize embryos are routinely used to regenerate plants (Lu et al., 1983). Embryos isolated from immature kernels of selfed F2 plants containing the TL and the DL were placed on callus induction medium with dexamethasone at 0 μM (control), 30 μM or 50 μM.

I-SceI:GR [2] = conditions: one week
Method: as §1

With `C[C@@H]1C[C@H]2[C@@H]3CCC4=CC(=O)C=C[C@]4(C)[C@@]3(F)[C@@H](O)C[C@]2(C)[C@@]1(O)C(=O)CO` [Dexamethasone, dexamethasone] the “GT Frequency, discovered kanamycin resistant events/extracted embryos” value (I-SceI:GR [1]; TL1 × DL, 30 μM) was 0.39%, the “GT Frequency, discovered kanamycin resistant events/extracted embryos” value (I-SceI:GR [1]; TL1 × DL, 50 μM) was 0.55% and the “Number of kanamycin resistant events” value (I-SceI:GR [1]; TL1 × DL, 181 extracted embryos, 50 μM) was 1. The “Number of kanamycin resistant events” value (I-SceI:GR [1]; TL1 × DL, 255 extracted embryos, 30 μM in callus induction medium) was 1, the “GT Frequency, discovered kanamycin resistant events/extracted embryos” value (I-SceI:GR [1]; TL2 × DL, 30 μM) was 0.53% and the “GT Frequency, discovered kanamycin resistant events/extracted embryos” value (I-SceI:GR [1]; TL2 × DL, 50 μM) was 0.27%. For the same compound, the “Number of kanamycin resistant events” value (I-SceI:GR [1]; TL2 × DL, 374 extracted embryos, 50 μM) was 1, the “Number of kanamycin resistant events” value (I-SceI:GR [1]; TL2 × DL, 563 extracted embryos, 30 μM) was 3 and the “Mutations in TL I-SceI site” value (I-SceI:GR [2]; TL1/DL calli, 30 μM) was 76. The “Mutations in TL I-SceI site” value (I-SceI:GR [2]; TL1/DL calli, 50 μM) was 76, the “Mutations in TL I-SceI site” value (I-SceI:GR [2]; TL2/DL calli, 30 μM) was 15 and the “Mutations in TL I-SceI site” value (I-SceI:GR [2]; TL2/DL calli, 50 μM) was 36.
